Results published in patent US10544440B2, “Multiple protease deficient filamentous fungal cells and methods of use thereof” (Glykos Finland OY, priority 2013, dated 2020).
Square brackets hold non-standard residues; d marks the D form. Peptide text beside a SMILES is read from it. * marks the point of attachment. Sta = CC(C)C[C@H](N)[C@@H](O)CC(=O)O; Isovaleryl = CC(C)CC(=O)*

Experiments:
[1] = system: M1200 strain; experiment: Inhibitor studies on FGF21 production strain M1200 in 24 well culture; format: cell-based, Trichoderma reesei; details: M1200 24 well culture, inhibitors 10 μM, SBTI 0.1 mg/ml; for FGF21 expression, lower band / FGF21 expression, total product / FGF21 expression, upper band: day 4 immunoblot
Source text: Chymostatin and SBTI are known to inhibit SLP2 and SLP7 subtilisin proteases that are still expressed in the M1200 strain. Pepstatin inhibits aspartic proteases such as PEP8, PEP11, PEP12 which are known to be secreted into the supernatant. 1,10-phenathroline targets mainly zinc metalloproteases which are secreted by Trichoderma. The M1200 strain was cultivated in 24 well format in TrMM with 10 g/L yeast extract, 20 g/L cellobiose, 10 g/L sorbose, PIPPS buffered at pH 4.5. Chymostatin, phenathroline, and pepstatin were used at a final concentration of 10 μM and SBTI was used at 0.1 mg/ml. Each treatment was done in duplicate wells and the untreated control was cultured in 4 wells.
The cultures were started by adding 1×10^7 spores into 50 ml of culture medium and adding 3 ml of culture medium plus spores to each well (6×10^5 spores/well). 100 μl of each culture supernatant was collected on days 4, 5, and 6. The mycelium was spun down to remove only the supernatant. Orange LSB was added and the samples were heated for 5 minutes. 2 μl of the supernatant+LSB was loaded per well into 4-20% Criterion TGX gel. The gel was run and proteins were transferred to nitrocellulose membranes.
The expressed FGF21 was detected by immunoblotting as above. A commercially purchased N-terminal antibody rabbit polyclonal from Abcam (#ab66564) and C-terminal rabbit polyclonal antibody from Abcam (#ab137715) were used in some cases.

[2] = system: M393 strain; experiment: FGF21 production by M393 in 24 well cultures treated with protease inhibitors; format: cell-based, Trichoderma reesei; details: M393 24 well culture, 10 μM pepstatin A added, day 6
Experimental: The M393 strain was grown with and without protease inhibitors pepstatin A, chymostatin, or soybean trypsin inhibitor. Independent wells were chosen for control wells where no inhibitors were added. This strain was grown in 3 ml of TrMM with diammonium citrate without ammonium sulfate, 100 mM PIPPS, 20 g/L spent grain extract, 40 g/L lactose adjusted to pH 4.5. The 24 well plates were shaken at 800 rpm at 85% humidity. The plate was covered with an air permeable membrane and the cultures were grown for 6 days.
Inhibitors were added first on day 3 and then added daily until day 6. 200 μl samples were taken from the culture wells beginning on day 3. The mycelium was spun down for 5 minutes at 13 k and the supernatant collected. From the culture supernatant 5 μl plus LSB was loaded in a 4-20% SDS PAGE gel and immunoblotting made on nitrocellulose with rabbit anti-FGF21 (2 μg/ml) and goat anti-rabbit IgG AP conjugated secondary antibody diluted 1:10,000. FGF21 standard were included on the blot for quantification.

Molecule	FGF21 expression, lower band [1] [Fluorescent units]	FGF21 expression, total product [1] [Fluorescent units]	FGF21 expression, upper band [1] [Fluorescent units]	effect of inhibitor treatment on FGF21 forms (immunoblot) [1]	FGF21 production [2]
c1cnc2c(c1)ccc1cccnc12 [1,10-phenathroline]	68800	69574	774	only improved the expression level of the 10 kD form	–
CC(C)C[C@H](NC(=O)[C@@H](NC(=O)N[C@@H](Cc1ccccc1)C(=O)O)[C@@H]1CCN=C(N)N1)C(=O)N[C@H](C=O)Cc1ccccc1 [chymostatin]	19500	53700	34200	improved the stability of the protein allowing a 17 kD major product	–
CC(C)CC(=O)N[C@H](C(=O)N[C@H](C(=O)N[C@@H](CC(C)C)[C@@H](O)CC(=O)N[C@@H](C)C(=O)N[C@@H](CC(C)C)[C@@H](O)CC(=O)O)C(C)C)C(C)C [pepstatin, pepstatin A] (Isovaleryl-VV[Sta]A[Sta]-OH)	51050	52660	1610	only improved the expression level of the 10 kD form	up to 160 mg/L
SBTI: soybean trypsin inhibitor, protease inhibitor (protein, UniProt P01070 25-205, looked up) Trypsin inhibitor A: DFVLDNEGNPLENGGTYYILSDITAFGGIRAAPTGNERCPLTVVQSRNELDKGIGTIISSPYRIRFIAEGHPLSLKFDSFAVIMLCVGIPTEWSVVEDLPEGPAVKIGENKDAMDGWFRLERVSDDEFNNYKLVFCPQQAEDDKCGDIGISIDHDDGTRRLVVSKNKPLVVQFQKLDKESL	37050	50850	13800	only improved the expression level of the 10 kD form	–
